According to patent US9902684B2, “Compound isolated from Isodon forrestii var. forrestii and preparation method and applications thereof” (JIANGSU PROVINCE INSTITUTE OF TRADITIONAL CHINESE MEDICINE, priority 2016, dated 2018):
pIC50: −log10 of the molar value. Residues, ends and D or L forms follow the SMILES beside them. *: point of attachment. Cbz = O=C(OCc1ccccc1)*; CH2F = FC*

What was measured:
HepG2 cell = experiment: Annexin V flow cytometry analysis of apoptosis; format: cell-based, human; settings: FIG. 5
Experimental: (§1) Dissolving Iso A (purity >99%) in DMSO, and preserving stock solution with concentration of 40 mM in −20° C. Detecting the inhibition effects of Iso A in various cells that includes liver cancer cell, breast cancer cell, lung cancer cell, osteosarcoma cell, melanoma cell, cervical cancer cell etc., and in normal human hepatocyte L02, human embryo lung cell HFL1, human mammary epithelial cell MCF 10A. […] Among tested cells, HepG2 cell is the most sensitive to Iso A, thus HepG2 is selected as a model in follow-up experiments.

[1] = test system: tumor cells (liver cancer, breast cancer, lung cancer, osteosarcoma, melanoma, cervical cancer cell); experiment: MTT experiment, growth inhibition of various tumor cells; format: cell-based; settings: Homo sapiens; all tested tumor cells; FIG. 2
Experimental: as §1

[2] = test system: hepatocellular carcinoma cell line HepG2; experiment: MTT assay, HepG2 cell growth; format: cell-based, human; settings: various concentrations, 24 hours; FIG. 3
Experimental: as §1

[3] = test system: human normal hepatic cell line L02; experiment: MTT assay, normal hepatic cell L02 growth; format: cell-based; settings: various concentrations, 24 hours; FIG. 3
Experimental: as §1

HepG2 cells = experiment: Trypan blue exclusion assay, HepG2; format: cell-based, human; settings: various concentrations, 24 hours; FIG. 4
Experimental: as §1

[4] = test system: human normal hepatic cell L02; experiment: Trypan blue exclusion assay, normal cells; format: cell-based; settings: various concentrations, 24 hours; FIG. 4
Experimental: as §1

HepG2 xenograft = experiment: Murine xenograft tumor model of hepatocellular carcinoma; format: in vivo, BALB/c nude mouse; settings: 15 mg/kg once daily, 15 days, vs control group
Excerpt: • a) Cell line: Human hepatocellular carcinoma cell line HepG2 is bought from the Cell Bank of Chinese Academy of Sciences for Type Culture Collection • b) Animal: 20 BALB/c male nude mouse with weight of (13±2 g), the BALB/c mice is bought from Model Animal Research Center of Nanjing University, the animal is bred under the environment without a special pathogen in the Animal Center of Jiangsu Traditional Chinese Medicine Research Institution [SCXK( ? ) 2002-0001]. • c) Pharmaceutical: Iso A 2. Experiment Method: • a) Make of a murine xenograft model ofepatocellular carcinoma: HepG2 cells in log phase are digested with trypin, and suspended with a final density of 2×10^7 cells/ml. Then, 200 μl (100 μl cells+100 μl matrigel) cell suspension is inoculated into the right subaxillary of nude mice with 1 ml injector. • b) Group and administration of experimental animal: grouping when the tumor becomes 100 mm^3 into 10 per group (same average volume per group, too big or small ones are eliminated). Grouping specifically as followings: (1) Iso A 15 mg/kg dose group, (2) solvent control group (0.5% CMC-Na). […] Antitumor effect is determined by tumor inhibition rate. […]

[5] = Toxicity assessment in xenograft mice (weight, serum indices, blood routine); format: in vivo, BALB/c nude mouse; settings: 15 mg/kg
Excerpt: • a) Cell line: Human hepatocellular carcinoma cell line HepG2 is bought from the Cell Bank of Chinese Academy of Sciences for Type Culture Collection • b) Animal: 20 BALB/c male nude mouse with weight of (13±2 g), the BALB/c mice is bought from Model Animal Research Center of Nanjing University, the animal is bred under the environment without a special pathogen in the Animal Center of Jiangsu Traditional Chinese Medicine Research Institution [SCXK( ? ) 2002-0001]. • c) Pharmaceutical: Iso A 2. Experiment Method: • a) Make of a murine xenograft model ofepatocellular carcinoma: HepG2 cells in log phase are digested with trypin, and suspended with a final density of 2×10^7 cells/ml. Then, 200 μl (100 μl cells+100 μl matrigel) cell suspension is inoculated into the right subaxillary of nude mice with 1 ml injector. • b) Group and administration of experimental animal: grouping when the tumor becomes 100 mm^3 into 10 per group (same average volume per group, too big or small ones are eliminated). Grouping specifically as followings: (1) Iso A 15 mg/kg dose group, (2) solvent control group (0.5% CMC-Na). Administrate one time every day for total 15 days. • c) Sample selection and index observation: • i. observation for normal state: before drug administration, measure the weight and tumor size (tumor volume V=long diameter×short diameter^2/2) one time every day. Observe the locomotor activity, mental state, hair, breath, diet, manure trait and reaction to outside world of the mice. After ending pharmaceutical interference, the mice are anesthetized and the blood is acquired by cardiac puncture. The serum is got by centrifugation and store in −80° C. After the skin of the tumor growing part on the right axilla of the mice is nipped by forceps, use a surgical scissors to cut the skin for exposing the tumor, then use the surgical scissors to dissect the tumor with blunt dissection and use a scale to weigh the tumor, transplanted tumor and calculate the inhibition rate. Antitumor effect is determined by tumor inhibition rate. Tumor inhibition rate (%)=[1−(average weight of tumor in experimental group/average weight of tumor in control group)]×100% • ii. Detecting apoptosis of tumor tissues with TUNEL staining: according to TUNEL apoptosis detection kit specification of Roche Inc. after fixing frozen tissue section in room temperature. • iii. Blood routine examination for assessing the marrow toxicity of Iso A, analyze ALT, AST, ALP level in plasma for assessing hepatotoxicity of Iso A, and measure the creatinine and urea nitrogen for assessing renal damage.
Fabricate mice transplanted hepatocellular carcinoma model, and group mice into control group and Iso A (15 mg/kg) administration group at random. Record the weight and tumor size one time every three days and kill the mice after 15-day-administration for detection and analysis of the tumor tissues, blood etc.

Trx1 [6] = target: T1, Trx1 (Homo sapiens, UniProt P10599); experiment: In vitro Trx1 activity, Thioredoxin Activity Fluorescent Assay Kit; format: biochemical; parameters: purchased Sino Biological Inc; settings: read-out: inhibition rate of Trx1 activity
T1 sequence (P10599 1-105): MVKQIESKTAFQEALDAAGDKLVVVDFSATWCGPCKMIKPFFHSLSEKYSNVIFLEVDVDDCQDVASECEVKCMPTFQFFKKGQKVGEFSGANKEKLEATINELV
Experimental: Trx1 protein was bought from Sino Biological Inc., Trx1 activity detection kit was bought from American Caymen Chemical cooperation.
The in vitro activity of Trx is assayed using the—Thioredoxin Activity Fluorescent Assay Kit (Caymen Chemical). According to the instructions of the kit 2 μl of Iso A with different concentrations (0.195 μM to 100 μM) is added into 0.02 μM Trx mix, following by adding 5 μl of β-NADPH into each sample to incubate in 37° C. for 30 min. Then, a fluorescent substrate is added and Trx1 activity is was recorded as the emission at 518 nm after 488 nm excitation for 30-60 min, with a Thermo Scientific Varioskan Flash fluorescent microplate reader.

Trx1 [7] = target: T1, Trx1; experiment: Mass spectrometry analysis of direct conjugation with Trx1 protein; format: binding; parameters: purchased Sino Biological Inc; settings: 2 h room temperature, MALDI mass spectrometry; FIG. 8
Experimental: Human-derived Trx1 protein (Sino Biological Inc.) is dissolved in distilled water at a 5 mg/ml and stored. In 25 mM Tris-HCl (pH 7.4) buffer, mixi 4 μl Iso A with 140 μl human Trx1 protein to incubate for 2 h in room temperature. Samples after reaction is treated by Shimadzu Biotech Proteome kit for enzymatic hydrolysis with MonoSpin Trypsin, then desalted by MonoSpin® C18 column for mass spectrometry analysis with MALDI 7090 (SHIMADZU).

Trx1 [8] = target: T1, Trx1; experiment: Trx1 activity in HepG2 cells (insulin reduction/DTNB); format: cell-based; parameters: endogenous in cells; host or cells: HepG2; settings: 10-30 μM for 8 hours; relative to 0.5% DMSO control; FIG. 7
Experimental: (§2) Methods for measuring Trx1 activity in cells or tissue samples: using lysates (20 mM HEPES (pH 7.9), 300 mM NaCl, 100 mM KCl, 10 mM EDTA and 0.1% Nonidet P-40, protease-contained inhibitor) to lyse the cells or tissue samples. Pre-treating 90 μg protein at 37° C. for 15 min by using DTT activation buffer (50 mmol/liter HEPES (pH 7.6), 1 mmol/liter EDTA, 1 mg/ml bovine serum albumin, and 2 mmol/liter dithiothreitol). Then adding 20 μl reaction mixture (200 μl of 1 M HEPES (pH 7.6), 40 μl of 0.2 mol/liter EDTA, 40 μl of NADPH (40 mg/ml)) and 500 μl insulin. Adding 5 μl thioredoxin reductase for initial reaction while adding water of same volume into the control group. Incubate the samples in 37° C. for 20 min, and then add 6 M guanidine hydrochloride of 0.25 ml and 0.4 mg/ml DTNB to terminate reaction. Detecting optical absorption of 412 nm.
Cultivate human hepatocellular carcinoma cell line HepG2 in vitro culture. […] Calculate the relative activity of Trxl in each group under the condition that negative control activity is 1.

Trx1 [9] = target: T1, Trx1; experiment: Trx1 activity in xenograft tumor tissues; format: in vivo, BALB/c nude mouse; parameters: from tissue; host or cells: HepG2 xenograft tumor from BALB/c nude mice; settings: 15 mg/kg once daily, 15 days; FIG. 12
Experimental: as §2, with “Detecting optical absorption of 412 nm.” left out
• a) Cell line: Human hepatocellular carcinoma cell line HepG2 is bought from the Cell Bank of Chinese Academy of Sciences for Type Culture Collection • b) Animal: 20 BALB/c male nude mouse with weight of (13±2 g), the BALB/c mice is bought from Model Animal Research Center of Nanjing University, the animal is bred under the environment without a special pathogen in the Animal Center of Jiangsu Traditional Chinese Medicine Research Institution [SCXK( ? ) 2002-0001]. • c) Pharmaceutical: Iso A 2. […] Antitumor effect is determined by tumor inhibition rate. […]

COC(=O)C[C@H](NC(=O)[C@H](C)NC(=O)[C@@H](NC(=O)OCc1ccccc1)C(C)C)C(=O)CF [Z-VAD-FMK, reference compound] (Cbz-Val-Ala-Asp(OMe)-CH2F)
effect of pan-caspase inhibitor on apoptosis induced by Iso A (HepG2 cell; HepG2): partially inhibits the apoptosis induced by Iso A

C=C1C(=O)[C@]23C[C@H]1[C@@H](OC(C)=O)[C@H](OC(C)=O)[C@H]2[C@]1(C)C[C@H](OC(C)=O)[C@H](OC(C)=O)C(C)(C)[C@H]1[C@@H](O)C3 [Iso A, Isoforresin A]
pIC50 [1]: > 4.52 | inhibition of HepG2 cell growth (MTT) [2]: inhibit the growth of HepG2 cell in a concentration-dependent manner | inhibition of L02 cell growth (MTT) [3]: no obvious inhibitory effects | cell death of HepG2 cells (trypan blue exclusion) (HepG2 cells): selectively trigger the death of HepG2 cells | toxicity to normal cells (trypan blue exclusion) [4]: obviously not toxic | Annexin V positive cells (apoptosis) (HepG2 cell; HepG2, 10 or 20 μM Iso A, 24 hours): increasement of Annexin V positive cells | tumor volume (HepG2 xenograft; FIG. 10): significantly decreased | tumor weight (HepG2 xenograft; FIG. 11): significantly decreased | toxic or side effects on marrow, liver and kidney ([5]; 15 days, xenograft murine model): no toxic or side effects | ALP level in serum ([5]; 15 days, FIG. 13): no obvious difference | ALT level in serum ([5]; 15 days, FIG. 13): no obvious difference | AST level in serum ([5]; 15 days, FIG. 13): no obvious difference | creatinine level in serum ([5]; 15 days, FIG. 14): no obvious difference | urea nitrogen level in serum ([5]; 15 days, FIG. 14): no obvious difference | body weight of mice ([5]; during administration, vs control group, FIG. 9): no difference in weight | inhibition at 2.5 µM (Trx1 [6]): 20% | inhibition at 5 µM (Trx1 [6]): 48.6% | inhibition at 10 µM (Trx1 [6]): 98% | direct binding/conjugation with Trx1 protein (Cys 32/35) (Trx1 [7]): can directly bind with Trx1 protein | Trx1 activity in HepG2 cells (Trx1 [8]): significantly reduced | Trx1 activity in the tumor tissues (Trx1 [9]): significantly decreased
